In patent US12528812B2 (Genentech, Inc., priority 2020, dated 2026):
Like-named read-outs stand apart in the source and are kept apart here.

Legend:
[1] = test system: IL-13-stimulated STAT6 phosphorylation in human lung bronchial epithelial BEAS-2B cell line; test: P-STAT6 BEAS-2B + IL-13 cell assay; format: cell-based; conditions: BEAS2B cells, IL13 stimulation, read-out: Cellular JAK1 PSTAT6 BEAS2B + IL13
In short: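 BEAS-2B cells grown 48 h at 37 °C, pre-treated 1 h with compound (10-point 1:2 dilution curve), then stimulated 15 min with human recombinant IL-13 (250 ng/mL stock). Lysate P-STAT6 (Tyr641) read by MSD sandwich ELISA with total-STAT6 capture; IC50 from four-parameter logistic fit of control-normalised data.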

[2] = target: T1, recombinant human JAK1 kinase domain protein (Residues 854-1154) (Homo sapiens, UniProt P23458); test: JAK1 biochemical assay (LabChip mobility shift, Ki); conditions: read-out: Biochem JAK1 Ki
T1 construct: human JAK1 kinase domain protein (Residues 854-1154); purchased Proteros Biostructures GmbH (Martinsried, Germany); host or cells: insect cells
T1 sequence (P23458 854-1154): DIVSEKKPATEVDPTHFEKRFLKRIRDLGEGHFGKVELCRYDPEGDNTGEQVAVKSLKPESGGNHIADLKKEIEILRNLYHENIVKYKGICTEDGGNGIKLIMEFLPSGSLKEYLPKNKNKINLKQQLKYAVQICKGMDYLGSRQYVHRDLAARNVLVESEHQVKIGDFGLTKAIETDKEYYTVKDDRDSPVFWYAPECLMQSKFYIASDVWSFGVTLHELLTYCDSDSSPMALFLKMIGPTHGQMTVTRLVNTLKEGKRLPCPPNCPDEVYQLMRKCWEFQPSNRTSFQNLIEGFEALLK

[3] = target: Recombinant human JAK2 kinase domain protein (Residues 812-1132) (Homo sapiens, UniProt O60674); test: JAK2 biochemical assay (LabChip mobility shift, Ki); conditions: Biochem JAK2 Ki
Sequence of Recombinant human JAK2 kinase domain protein (Residues 812-1132) (O60674 812-1132): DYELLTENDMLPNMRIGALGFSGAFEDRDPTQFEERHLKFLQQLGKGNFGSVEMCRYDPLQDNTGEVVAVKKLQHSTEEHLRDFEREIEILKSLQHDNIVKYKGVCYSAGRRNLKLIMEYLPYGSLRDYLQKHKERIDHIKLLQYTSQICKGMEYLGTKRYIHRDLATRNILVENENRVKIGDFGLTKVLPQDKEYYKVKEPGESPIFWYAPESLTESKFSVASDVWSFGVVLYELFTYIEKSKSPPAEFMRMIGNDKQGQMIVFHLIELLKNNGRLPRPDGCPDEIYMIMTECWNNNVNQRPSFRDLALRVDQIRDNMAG

**Q.** What does the source list for CN1CC(O)(c2cc(Oc3ccc(OC(F)F)c(-c4nn(C)cc4NC(=O)c4cnn5cccnc45)c3)cc(C(F)(F)F)c2)C1 [Example 106, N-[3-[2-(difluoromethoxy)-5-[3-(3-hydroxy-1-methyl-azetidin-3-yl)-5-(trifluoromethyl)phenoxy]phenyl]-1-methyl-pyrazol-4-yl]pyrazolo[1,5-a]pyrimidine-3-carboxamide]?
**A.** IC50 ([1]; Homo sapiens, BEAS-2B): 74 nM; Ki [2]: 1.6 nM; Ki [3]: 1.7 nM

**Q.** For CN(CCN1CCOCC1)C(=O)c1cccc(Oc2ccc(OC(F)F)c(-c3nn(C)cc3NC(=O)c3cnn4cccnc34)c2)c1 [Example 92, N-[3-[2-(difluoromethoxy)-5-[3-[methyl(2-morpholinoethyl)carbamoyl]phenoxy]phenyl]-1-methyl-pyrazol-4-yl]pyrazolo[1,5-a]pyrimidine-3-carboxamide], which IC50 ([1]; Homo sapiens, BEAS-2B) is on record?
**A.** 56 nM

**Q.** And the Ki [2]?
**A.** 1.1 nM

**Q.** And the Ki [3]?
**A.** 0.68 nM

**Q.** Which results are given for CN(C)C(=O)c1ccc(Oc2ccc(OC(F)F)c(-c3nn(C4COC4)cc3NC(=O)c3cnn4cccnc34)c2)cc1 [Example 142, 3-[2-(difluoromethoxy)-5-[4-(dimethylcarbamoyl)phenoxy]phenyl 1-1-(oxetan-3-yl)pyrazol-4-yl]pyrazolo[1,5-a]pyrimidine-3-carboxamide]?
**A.** IC50 ([1]; Homo sapiens, BEAS-2B): 22 nM; Ki [2]: 0.64 nM; Ki [3]: 0.39 nM

**Q.** For CCN1CC(O)(Cn2cc(Oc3ccc(OC(F)F)c(-c4nn(C)cc4NC(=O)c4cnn5cccnc45)c3)cn2)C1 [Example 207, N-[3-[2-(difluoromethoxy)-5-[1-[(1-ethyl-3-hydroxy-azetidin-3-yl)methyl]pyrazol-4-yl]oxy-phenyl]-1-methyl-pyrazol-4-yl]pyrazolo[1,5-a]pyrimidine-3-carboxamide], which IC50 ([1]; Homo sapiens, BEAS-2B) is on record?
**A.** 33 nM

**Q.** What about the Ki [2] of the same compound?
**A.** 0.73 nM

**Q.** And the Ki [3]?
**A.** 0.53 nM

**Q.** Which results are given for Cn1cc(NC(=O)c2cnn3cccnc23)c(-c2cc(Oc3cnn(CC4(O)CN5CCC4CC5)c3)ccc2OC(F)F)n1 (stereo not drawn) [Example 199, N-[3-[2-(difluoromethoxy)-5-[1-[(3-hydroxyquinuclidin-3-yl)methyl]pyrazol-4-yl]oxy-phenyl]-1-methyl-pyrazol-4-yl]pyrazolo[1,5-a]pyrimidine-3-carboxamide]?
**A.** IC50 [1]: 130 nM; Ki [2]: 0.88 nM; Ki [3]: 0.43 nM

**Q.** How did the IC50 ([1]; Homo sapiens, BEAS-2B) turn out when Cn1cc(NC(=O)c2cnn3cccnc23)c(-c2cc(Oc3cccc(CN)n3)ccc2OC(F)F)n1 [Example 39, N-[3-[5-[[6-(aminomethyl)-2-pyridyl]oxy]-2-(difluoromethoxy)phenyl]-1-methyl-pyrazol-4-yl]pyrazolo[1,5-a]pyrimidine-3-carboxamide] was run?
**A.** 35 nM

**Q.** What about the Ki [2] of the same compound?
**A.** 1.5 nM

**Q.** And the Ki [3]?
**A.** 1.3 nM

**Q.** With Cn1cc(NC(=O)c2cnn3cccnc23)c(-c2cc(Oc3ccc(CN4CCC[C@@H](O)C4)cc3)ccc2OC(F)F)n1 (racemic) [Example 163, N-[3-[2-(difluoromethoxy)-5-[4-[[rac-(3R)-3-hydroxy-1-piperidyl]methyl]phenoxy]phenyl]-1-methyl-pyrazol-4-yl]pyrazolo[1,5-a]pyrimidine-3-carboxamide] as the compound, how does the IC50 ([1]; Homo sapiens, BEAS-2B) read?
**A.** 21 nM

**Q.** What about the Ki [2] of the same compound?
**A.** 1.5 nM

**Q.** And the Ki [3]?
**A.** 0.37 nM

**Q.** For CN1CC(O)(c2cncc(Oc3ccc(OC(F)F)c(-c4nn(C)cc4NC(=O)c4cnn5cccnc45)c3)c2)C1 [Example 189, N-[3-[2-(difluoromethoxy)-5-[[5-(3-hydroxy-l-methyl-azetidin-3-yl)-3-pyridyl]oxy]phenyl]-1-methyl-pyrazol-4-yl]pyrazolo[1,5-a]pyrimidine-3-carboxamide], which IC50 ([1]; Homo sapiens, BEAS-2B) is on record?
**A.** 78 nM

**Q.** And the Ki [2]?
**A.** 0.57 nM

**Q.** What about the Ki [3] of the same compound?
**A.** 0.39 nM

**Q.** What does the source list for Cn1cc(NC(=O)c2cnn3cccnc23)c(-c2cc(Oc3ccccn3)ccc2OC(F)F)n1 [Example 175, N-[3-[2-(difluoromethoxy)-5-(2-pyridyloxy)phenyl]-1-methyl-pyrazol-4-yl]pyrazolo[1,5-a]pyrimidine-3-carboxamide]?
**A.** IC50 ([1]; Homo sapiens, BEAS-2B): 68 nM; Ki [2]: 1.1 nM; Ki [3]: 0.57 nM

**Q.** Which results are given for Cn1cc(NC(=O)c2cnn3cccnc23)c(-c2cc(Oc3ccc(F)c(C4(O)CNC4)c3)ccc2OC(F)F)n1 [Example 103, N-[3-[2-(difluoromethoxy)-5-[4-fluoro-3-(3-hydroxyazetidin-3-yl)phenoxy]phenyl]-1-methyl-pyrazol-4-yl]pyrazolo[1,5-a]pyrimidine-3-carboxamide]?
**A.** IC50 ([1]; Homo sapiens, BEAS-2B): 260 nM; Ki [2]: 0.48 nM; Ki [3]: 0.54 nM

**Q.** Which IC50 ([1]; Homo sapiens, BEAS-2B) does the source give for Cn1cc(NC(=O)c2cnn3cccnc23)c(-c2cc(Oc3ccc4c(c3)CNCC4)ccc2OC(F)F)n1 [Example 150, N-[3-[2-(difluoromethoxy)-5-(1,2,3,4-tetrahydroisoquinolin-7-yloxy)phenyl]-1-methyl-pyrazol-4-yl]pyrazolo[1,5-a]pyrimidine-3-carboxamide] here?
**A.** 16 nM

**Q.** And the Ki [2]?
**A.** 0.21 nM

**Q.** What about the Ki [3] of the same compound?
**A.** 0.22 nM

**Q.** What does the source list for Cn1cc(NC(=O)c2cnn3cccnc23)c(-c2cc(Oc3ccc(CN4CCCCC4CO)cc3)ccc2OC(F)F)n1 (racemic) [Example 167, N-[3-[2-(difluoromethoxy)-5-[4-[[rac-(2S)-2-(hydroxymethyl)-1-piperidyl]methyl]phenoxy]phenyl]-1-methyl-pyrazol-4-yl]pyrazolo[1,5-a]pyrimidine-3-carboxamide]?
**A.** IC50 ([1]; Homo sapiens, BEAS-2B): 26 nM; Ki [2]: 1.9 nM; Ki [3]: 0.34 nM

**Q.** For Cn1cc(NC(=O)c2cnn3cccnc23)c(-c2cc(Oc3cnn(C4CCNC4)c3)ccc2OC(F)F)n1 (racemic) [Example 139, N-[3-[2-(difluoromethoxy)-5-[1-[rac-(3R)-pyrrolidin-3-yl]pyrazol-4-yl]oxy-phenyl]-1-methyl-pyrazol-4-yl]pyrazolo[1,5-a]pyrimidine-3-carboxamide], which IC50 ([1]; Homo sapiens, BEAS-2B) is on record?
**A.** 70 nM

**Q.** And the Ki [2]?
**A.** 2 nM

**Q.** And the Ki [3]?
**A.** 1.5 nM

**Q.** For Cn1cc(Oc2ccc(OC(F)F)c(-c3nn(CC(N)=O)cc3NC(=O)c3cnn4cccnc34)c2)cn1 [Example 174, N-[1-(2-amino-2-oxo-ethyl)-3-[2-(difluoromethoxy)-5-(1-methylpyrazol-4-yl)oxy-phenyl]pyrazol-4-yl]pyrazolo[1,5-a]pyrimidine-3-carboxamide], which IC50 ([1]; Homo sapiens, BEAS-2B) is on record?
**A.** 240 nM

**Q.** And the Ki [2]?
**A.** 1.6 nM

**Q.** And the Ki [3]?
**A.** 0.92 nM

**Q.** Which results are given for Cn1cc(NC(=O)c2cnn3cccnc23)c(-c2cc(Oc3cnn(C4CC(O)C4)c3)ccc2OC(F)F)n1 (stereo not drawn) [Example 118, N-[3-[2-(difluoromethoxy)-5-[1-(3-hydroxycyclobutyl)pyrazol-4-yl]oxy-phenyl]-1-methyl-pyrazol-4-yl]pyrazolo[1,5-a]pyrimidine-3-carboxamide]?
**A.** IC50 ([1]; Homo sapiens, BEAS-2B): 48 nM; Ki [2]: 0.43 nM; Ki [3]: 0.5 nM

**Q.** For CN(Cc1cccc(Oc2ccc(OC(F)F)c(-c3nn(C)cc3NC(=O)c3cnn4cccnc34)c2)c1)CC(C)(C)C#N [Example 21, N-[3-[5-[3-[[(2-cyano-2-methyl-propyl)-methyl-amino]methyl]phenoxy]-2-(difluoromethoxy)phenyl]-1-methyl-pyrazol-4-yl]pyrazolo[1,5-a]pyrimidine-3-carboxamide], which IC50 ([1]; Homo sapiens, BEAS-2B) is on record?
**A.** 110 nM

**Q.** And the Ki [2]?
**A.** 1.8 nM

**Q.** And the Ki [3]?
**A.** 1.3 nM

**Q.** What does the source list for Cn1cc(NC(=O)c2cnn3cccnc23)c(-c2cc(Oc3ccnc(CN)c3)ccc2OC(F)F)n1 [Example 40, N-[3-[5-[[2-(aminomethyl)-4-pyridyl]oxy]-2-(difluoromethoxy)phenyl]-1-methyl-pyrazol-4-yl]pyrazolo[1,5-a]pyrimidine-3-carboxamide]?
**A.** IC50 ([1]; Homo sapiens, BEAS-2B): 51 nM; Ki [2]: 0.97 nM; Ki [3]: 0.77 nM

**Q.** With CN(C)C(=O)c1cc(Oc2ccc(OC(F)F)c(-c3nn(C)cc3NC(=O)c3cnn4cccnc34)c2)ccc1Cl [Example 78, N-[3-[5-[4-chloro-3-(dimethylcarbamoyl)phenoxy]-2-(difluoromethoxy)phenyl]-1-methyl-pyrazol-4-yl]pyrazolo[1,5-a]pyrimidine-3-carboxamide] as the compound, how does the IC50 ([1]; Homo sapiens, BEAS-2B) read?
**A.** 21 nM

**Q.** And the Ki [2]?
**A.** 0.31 nM

**Q.** And the Ki [3]?
**A.** 0.22 nM

**Q.** CN(C)C1CCCN(C(=O)c2cccc(Oc3ccc(OC(F)F)c(-c4nn(C)cc4NC(=O)c4cnn5cccnc45)c3)c2)C1 (racemic) [Example 213, N-[3-[2-(difluoromethoxy)-5-[3-[rac-(3R)-3-(dimethylamino)piperidine-1-carbonyl]phenoxy]phenyl]-1-methyl-pyrazol-4-yl]pyrazolo[1,5-a]pyrimidine-3-carboxamide] was tested. Which IC50 ([1]; Homo sapiens, BEAS-2B) did it give?
**A.** 49 nM

**Q.** And the Ki [2]?
**A.** 1.2 nM

**Q.** What about the Ki [3] of the same compound?
**A.** 0.89 nM

**Q.** With Cn1cc(NC(=O)c2cnn3cccnc23)c(-c2cc(Oc3ccnnc3)ccc2OC(F)F)n1 [Example 202, N-[3-[2-(difluoromethoxy)-5-pyridazin-4-yloxy-phenyl]-1-methyl-pyrazol-4-yl]pyrazolo[1,5-a]pyrimidine-3-carboxamide] as the compound, how does the IC50 ([1]; Homo sapiens, BEAS-2B) read?
**A.** 26 nM

**Q.** And the Ki [2]?
**A.** 0.68 nM

**Q.** And the Ki [3]?
**A.** 0.38 nM

**Q.** With CN1CC(O)(c2cccc(Oc3ccc(OC(F)F)c(-c4nn(C5COC5)cc4NC(=O)c4cnn5cccnc45)c3)c2)C1 [Example 100, N-[3-[2-(difluoromethoxy)-5-[3-(3-hydroxy-1-methyl-azetidin-3-yl)phenoxy]phenyl]-1-(oxetan-3-yl)pyrazol-4-yl]pyrazolo[1,5-a]pyrimidine-3-carboxamide] as the compound, how does the IC50 ([1]; Homo sapiens, BEAS-2B) read?
**A.** 46 nM

**Q.** And the Ki [2]?
**A.** 0.4 nM

**Q.** What about the Ki [3] of the same compound?
**A.** 0.46 nM

**Q.** CN1CCC(n2cc(Oc3ccc(OC(F)F)c(-c4nn(C)cc4NC(=O)c4cnn5cccnc45)c3)cn2)C1 (racemic) [Example 140, N-[3-[2-(difluoromethoxy)-5-[1-[rac-(3S)-1-methylpyrrolidin-3-yl]pyrazol-4-yl]oxy-phenyl]-1-methyl-pyrazol-4-yl]pyrazolo[1,5-a]pyrimidine-3-carboxamide] was tested. Which IC50 ([1]; Homo sapiens, BEAS-2B) did it give?
**A.** 44 nM

**Q.** And the Ki [2]?
**A.** 2.6 nM

**Q.** And the Ki [3]?
**A.** 1.9 nM

**Q.** Which IC50 ([1]; Homo sapiens, BEAS-2B) does the source give for Cn1cc(NC(=O)c2cnn3cccnc23)c(-c2cc(Oc3cccc(C4(O)CNC4)c3)ccc2OC(F)F)n1 [Example 53] here?
**A.** 210 nM

**Q.** What about the Ki [2] of the same compound?
**A.** 0.32 nM

**Q.** What about the Ki [3] of the same compound?
**A.** 0.27 nM
